Assay results taken from article PMC5750218, “Protein-inspired antibiotics active against vancomycin- and daptomycin-resistant bacteria” (Nature Communications, 2018).

Tests used:
[1] = system: S. aureus ATCC 43300 (MRSA); assay: Time kill assay; format: cell-based, Staphylococcus aureus
Procedure: S. aureus ATCC® 43300™ (MRSA) was cultured in MHB (BactoLaboratories, Cat. No 211443) at 37 °C overnight. A sample was then diluted 40-fold in fresh MHB and incubated at 37 °C for 2–3 h until the culture reached early exponential phase (OD600 of 0.2–0.4). Vancapticin 24 ([…] and 0.003 µg mL^−1) and vancomycin (4, 2, 1 and 0.5 µg mL^−1) were serially diluted twofold across the wells of 96-well microtitre plates (NBS, Corning 3641) with a final volume of 50 µL, then combined with 50 µL of bacterial inoculum (giving a final cell density of 5 × 10^5 CFU mL^−1) and incubated at 37 °C. Serial dilutions of the cultures were plated at each desired time point, using a multichannel pipette as follows: in row A of a 96-well plate, 50 µL of sterile activated charcoal suspension (25 mg mL^−1) was added, while 90 µL of 0.9% sterile saline per well was added to the other rows. At selected time-points, 50 µL aliquots were transferred from the time-kill assay plate to the first row containing the charcoal suspension and mixed well. […] The colonies in each spot were counted and used to calculate the number of viable CFU mL^−1 remaining in the original culture by considering the dilution factors (1:2 in charcoal, the serial dilution factor and the volume of the aliquot spotted).

HEK293 cells = assay: Cytotoxicity MTT assay; format: cell-based, human
Method in brief: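 HepG2 and HEK293 cells, 1.5 × 10^4 per well in DMEM with 1% FBS, were allowed to attach for 24 h, then exposed 24 h at 37 °C to compounds at 100 µM to 0.046 µM in threefold steps. MTT (0.4 mg mL^−1) was added for 2 h, and formazan in DMSO was read at 570 nm. Viability is given as percent of control, corrected for a positive control.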

[2] = system: cell-free particulate fraction of Bacillus megaterium KM (ATCC 13632); assay: Cell-free peptidoglycan inhibition assay; format: biochemical; settings: cell free radiolabelled synthesis assay
Procedure: The cell-free particulate fraction of Bacillus megaterium KM (ATCC®13632™) was used to catalyse the polymerisation of peptidoglycan from UPD-linked precursors in vitro following literature procedures. B. megaterium was grown in the medium containing 1% (w/v) tryptone (Difco-Bacto), 0.5% (w/v) yeast extract (Difco-Bacto), 0.25% (w/v) K2HPO4 and 0.5% (w/v) glucose with pH 7.2. Bacteria were harvested when the density had reached to 0.4 mg dry weight mL^−1 and washed in the buffer 0.05 M Tris-HCl (pH 7.8) containing 10 mM MgCl2 by centrifugation at 6000 × g for 10 min at 4 °C. All subsequent manipulations were carried out on ice. The bacteria were resuspended in the same buffer at a density of 50 mg dry weight mL^−1, and then subjected to three freeze/thaw cycles. Bacteria were then homogenised by using a glass homogeniser at 4 °C (2 × 10 min). The broken cell suspension was centrifuged at 6000 × g for 10 min at 4 °C. […] Integrated density value (IDV) of each band on silica gel was analysed using AlphaEase FC software (AlphaImager 2200). The change of peptidoglycan or Lipid II were calculated as percent from the IDV values of the control (without any antibiotic or compound).

CN[C@H](CC(C)C)C(=O)N[C@H]1C(=O)N[C@@H](CC(N)=O)C(=O)N[C@H]2C(=O)N[C@H]3C(=O)N[C@H](C(=O)N[C@H](C(=O)O)c4cc(O)cc(O)c4-c4cc3ccc4O)[C@H](O)c3ccc(c(Cl)c3)Oc3cc2cc(c3O[C@@H]2O[C@H](CO)[C@@H](O)[C@H](O)[C@H]2O[C@H]2C[C@](C)(N)[C@H](O)[C@H](C)O2)Oc2ccc(cc2Cl)[C@H]1O [Compound 1, Vancomycin]
Bactericidal profile in time kill assay [1]: slowly bactericidal

CN[C@H]1C(=O)N[C@@H]2Cc3ccc(cc3)Oc3cc4cc(c3O[C@@H]3O[C@H](C(=O)O)[C@@H](O)[C@H](O)[C@H]3NC(=O)CCCCCCCCC(C)C)Oc3ccc(cc3Cl)[C@@H](O)[C@@H]3NC(=O)[C@H](NC(=O)[C@@H]4NC(=O)[C@@H](NC2=O)c2cc(cc(O)c2Cl)Oc2cc1ccc2O)c1ccc(O)c(c1)-c1c(O[C@H]2O[C@H](CO)[C@@H](O)[C@H](O)[C@@H]2O)cc(O)cc1[C@@H](C(=O)NCCCN(C)C)NC3=O [Compound 3, Dalbavancin]
CC50 (HEK293 cells): 73 µM

CCCCCCCCCCCCCC(=O)N[C@@H](CCCCN)C(=O)N[C@@H](CCCCN)C(=O)N[C@@H](CCCCN)C(=O)N[C@@H](CCCCNC(=O)[C@H]1NC(=O)[C@H]2NC(=O)[C@H](NC(=O)[C@@H]3NC(=O)[C@H](CC(N)=O)NC(=O)[C@H](NC(=O)[C@@H](CC(C)C)NC)[C@H](O)c4ccc(c(Cl)c4)Oc4cc3cc(c4O[C@@H]3O[C@H](CO)[C@@H](O)[C@H](O)[C@H]3O[C@H]3C[C@](C)(N)[C@H](O)[C@H](C)O3)Oc3ccc(cc3Cl)[C@H]2O)c2ccc(O)c(c2)-c2c(O)cc(O)cc21)C(=O)O [Compound 17, nC13CO-KKK-K(Vancomycin)-OH]
Peptidoglycan formation, 14C-GlcNAc incorporation [2]: inhibited peptidoglycan formation
